Laboratory results published in article PMC9602571, “Discovery of a Dual SENP1 and SENP2 Inhibitor” (International Journal of Molecular Sciences, 2022).

How the values were obtained:
[1] = biological target: T1, UCHL1 (Homo sapiens, UniProt P09936); assay: UCHL1 activity assay, Ubiquitin-AMC substrate; format: biochemical; details: n = 2
T1 construct: purchased SignalChem U22-30H
T1 sequence (P09936 1-223): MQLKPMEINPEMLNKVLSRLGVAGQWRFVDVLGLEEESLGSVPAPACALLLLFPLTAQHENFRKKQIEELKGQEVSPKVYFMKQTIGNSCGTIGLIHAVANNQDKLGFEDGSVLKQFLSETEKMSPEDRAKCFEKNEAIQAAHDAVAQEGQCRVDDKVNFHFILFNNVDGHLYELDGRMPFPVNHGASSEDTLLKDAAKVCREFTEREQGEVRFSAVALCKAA
Procedure: (§1) IC50 measurements were conducted at Reaction Biology Corporation, Malvern, PA, USA, with two replications using 10 concentrations starting at 200 μM with three-fold dilution. Curve fits were performed where the enzyme activities at the highest concentration of compounds were less than 65%. UCHL1 II was used as a control inhibitor. The procedure was performed analogous to the fluorogenic SENP2 assay described in 3.3.2. using the UCHL1 enzyme (SignalChem Cat# U22-30H) and Ubiquitin-AMC substrate (Enzo Cat# BML-SE211-0025). The final reaction conditions contained 0.2 nM UCHL1 and 100 nM Ubiquitin-AMC.

[2] = biological target: T2, Ataxin-3 (Homo sapiens, UniProt P54252); assay: Ataxin-3 activity assay, Ubiquitin-AMC substrate; format: biochemical; details: n = 2
T2 construct: purchased BPS 80399
Procedure: as §1, with “the Ataxin-3” for “the UCHL1”, “enzyme (BPS” for “enzyme (SignalChem”, “Cat# 80399)” for “Cat# U22-30H)”, “contained 500” for “contained 0.2”, “nM Ataxin-3” for “nM UCHL1”

[3] = biological target: T3, SENP1 (Homo sapiens, UniProt Q9P0U3); assay: Fluorogenic SENP1 assay, SUMO1-AMC substrate; format: biochemical; details: for IC50: SUMO1-AMC 300 nM, 0.02 nM SENP1, interval in parentheses, read-out: IC50 SENP1; for LE (ligand efficiency): calculated: 1.4(-logIC50)/N
T3 construct: Human recombinant, His6-SENP1 Catalytic Domain; His6 (N); purchased Boston Biochem (Bio-Techne AG) E-700
T3 sequence (Q9P0U3 450-613 limits assumed): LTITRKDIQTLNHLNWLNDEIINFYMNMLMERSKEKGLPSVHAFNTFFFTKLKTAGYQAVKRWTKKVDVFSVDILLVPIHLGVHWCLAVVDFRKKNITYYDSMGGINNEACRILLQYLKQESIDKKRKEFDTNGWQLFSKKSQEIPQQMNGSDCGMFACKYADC
Procedure: Human recombinant, His6-SENP1 Catalytic Domain (Boston Biochem Cat# E-700, Bio-Techne AG, Zug, Switzerland) was prepared in reaction buffer (50 mM HEPES, 150 mM NaCl, 0.5 mM EDTA, 1 mM DTT, pH 7.5, 0.01% CHAPS). To this solution, a 20 mM or 50 mM inhibitor stock solution in DMSO was added and the mixture was incubated for 15 min at ambient temperature. […] The slope was calculated using Excel and the curve fits were performed using GraphPad Prism7 with a four-parameter least-squares fit. The final reaction conditions contained 0.02 nM SENP1 and 300 nM SUMO1/2 or 3-AMC).

[4] = biological target: T3, SENP1; assay: Fluorogenic SENP1 assay, SUMO2-AMC substrate; format: biochemical; details: n = 2
Procedure: (§2) Human recombinant, His6-SENP1 Catalytic Domain (Boston Biochem Cat# E-700, Bio-Techne AG, Zug, Switzerland) was prepared in reaction buffer (50 mM HEPES, 150 mM NaCl, 0.5 mM EDTA, 1 mM DTT, pH 7.5, 0.01% CHAPS). To this solution, a 20 mM or 50 mM inhibitor stock solution in DMSO was added and the mixture was incubated for 15 min at ambient temperature. […] The data were analyzed by taking the slope (signal/time) of the linear portion of measurement. The slope was calculated using Excel and the curve fits were performed using GraphPad Prism7 with a four-parameter least-squares fit. The final reaction conditions contained 0.02 nM SENP1 and 300 nM SUMO1/2 or 3-AMC).

[5] = biological target: T3, SENP1; assay: Fluorogenic SENP1 assay, SUMO3-AMC substrate; format: biochemical; details: n = 2
Procedure: as §2

[6] = biological target: T4, SENP2 (Homo sapiens, UniProt Q9HC62); assay: Fluorogenic SENP2 assay, SUMO1-AMC substrate; format: biochemical; details: n = 2
T4 construct: Human recombinant catalytic domain expressed in E. coli; purchased Enzo BML-UW9765; host or cells: E. coli
T4 sequence (Q9HC62 396-560 limits assumed): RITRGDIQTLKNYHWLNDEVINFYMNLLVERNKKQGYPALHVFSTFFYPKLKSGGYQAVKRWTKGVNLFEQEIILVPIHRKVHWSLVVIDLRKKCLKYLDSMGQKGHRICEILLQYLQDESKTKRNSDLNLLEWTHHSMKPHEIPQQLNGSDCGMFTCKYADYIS
Procedure: The IC50 measurements were conducted at Reaction Biology Corporation, Malvern, PA, USA, with two replications using 10 concentrations starting at 200 μM with a three-fold dilution. Curve fits were performed where the enzyme activities at the highest concentration of compounds were less than 65%. UCH-L3 I was used as a control inhibitor. To SENP2 (Enzo Cat# BML-UW9765, Human recombinant catalytic domain expressed in E. coli.) in reaction buffer (50 mM HEPES, 150 mM NaCl, 0.5 mM EDTA, 1 mM DTT, pH 7.5, 0.01% CHAPS) was delivered the compound stock solution by acoustic technology (Echo550; nanoliter range) and subsequently incubated for 15 min at ambient temperature. The substrate SUMO1-AMC (R&D Systems Cat# UL-551-050, Lot# 07613314A, Fluorescence labeled full-length SUMO1 protein) was delivered to the well-plate to initiate the reaction. The enzyme activities were monitored (Ex/Em = 355/460 nm) as a time-course measurement of the increase in fluorescence signal from SUMO1-AMC for 90 min at ambient temperature. The data were analyzed by taking the slope (signal/time) of linear portion of measurement. The slope was calculated using Excel and the curve fits were performed using GraphPad Prism7 with a four-parameter least-squares fit. The final reaction conditions contained 0.015 nM SENP2 and 300 nM SUMO1/2 or 3-AMC.

[7] = biological target: T3, SENP1; assay: Photo crosslinking experiments with SENP1; format: binding; details: probe 200 µM, SENP1 10 µM, UV 30 min
Procedure: A buffer exchange of the commercially available 6 × His-SENP1 Protein (Boston Biochem Cat# E-700) to a 50 mM HEPES, 150 mM NaCl; 0.5 mM EDTA, 1 mM DTT, pH 7.5 was performed. A total of 200 μM of the photo affinity probe 56 with or without competitor molecule 11 (400 μM) was incubated in 10 uM SENP1 for 30 min at 0 °C. Subsequently, the mixtures were irradiated in a Proma UV exposure unit equipped with four 8 Watt lamps (Hitachi FL8BL-8, ~350 nm) for 30 min at 0 °C. Then, 50 µL of the crosslinked proteins were mixed with freshly prepared click mix solution (50 μL; 1 mM CuSO4, 1 mM TCEP, 100 uM THPTA from a 5 mM DMSO stock, dissolved in Milli-Q Water) and a 10 mM stock solution of azide fluor 545 (1 μL) and incubated at 0 °C for 14 h. […] Protein samples for SDS-PAGE were first prepared in 1 × Laemmli sample buffer (diluted from 4 × Laemmli sample buffer (ROTI®Load), and subsequently denatured at 100 °C for 15 min. After SDS-PAGE gel electrophoresis separation, the fluorescence was visualized (Ex. 520 nm, Em. 575 nm) on the SDS PAGE gel using ImageQuant^TM 4000 LAS (GE Healthcare, Chicago, IL, USA). Secondly, the gels were stained with Bio-Safe Coomassie Brilliant Blue G-250 (BioRad) for 60 min. De-staining was performed with 40% (v/v) methanol, 10% (v/v) glacial acetic acid, 50% (v/v) Milli-Q water until protein bands became visible.

T2 sequence (P54252 whole entry): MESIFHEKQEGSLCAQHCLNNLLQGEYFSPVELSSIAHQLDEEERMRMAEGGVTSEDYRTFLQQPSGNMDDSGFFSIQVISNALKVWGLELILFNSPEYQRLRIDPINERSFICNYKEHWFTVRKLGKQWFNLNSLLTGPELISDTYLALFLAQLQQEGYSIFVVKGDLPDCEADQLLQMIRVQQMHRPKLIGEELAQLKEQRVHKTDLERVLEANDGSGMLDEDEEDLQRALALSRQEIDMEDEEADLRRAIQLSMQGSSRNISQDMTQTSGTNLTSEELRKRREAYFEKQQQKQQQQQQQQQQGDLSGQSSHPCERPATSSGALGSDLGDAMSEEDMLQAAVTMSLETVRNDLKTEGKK

IC50 [1] | IC50 [3] | IC50 [4] | IC50 [5] | IC50 [6] | melting point | covalent labelling of SENP1 by photo probe (TAMRA-azide fluorescence) [7] | LE (ligand efficiency) [3] | Compound | IC50 [2]
132 µM | 10 µM | 18 µM | 23 µM | 5.8 µM | 231 to 233 °C |  |  | O=C(Cn1nnc(-c2ccccc2)n1)N1c2cscc2NC(=O)C12CCCC2 [Compound 55, 1′-[2-(5-Phenyl-2H-1,2,3,4-tetrazol-2-yl)acetyl]-3′,4′-dihydro-1′H-spiro[cyclopentane-1,2′-thieno [3,4-b]pyrazin]-3′-one] | > 100 µM
64 µM |  |  |  | 9.3 µM |  |  |  | O=C(COC(=O)c1ccc(NC(=O)c2cccc(OCc3ccccc3)c2)cc1)c1ccc(Cl)cc1 [Compound 7, reference compound] | > 100 µM
 | 24 µM |  |  |  |  | fluorescent band was visible |  | C#CCCC1(CCC(=O)N2c3ccccc3NC(=O)C23CCCC3)N=N1 [Compound 56, 1′-{3-[3-(But-3-yn-1-yl)-3H-diazirin-3-yl]propanoyl}-3′,4′-dihydro-1′H-spiro[cyclopentane-1,2′-quinoxalin]-3′-one] | 
 | 202 µM |  |  |  | 246 to 250 °C (dec.) |  | 0.28 | COC(=O)c1ccc2c(c1)NC(=O)C1(CCCC1)N2 [Compound 40, Methyl 3′-oxo-3′,4′-dihydro-1′H-spiro[cyclopentane-1,2′-quinoxaline]-6′-carboxylate] | 
 | 50 µM |  |  |  | 197 to 202 °C (dec.) |  |  | O=C(Cn1nnnc1-c1ccccc1)N1c2ccccc2NC(=O)C12CCCC2 [Compound 54, 1′-[2-(5-Phenyl-1H-1,2,3,4-tetrazol-1-yl)acetyl]-3′,4′-dihydro-1′H-spiro[cyclopentane-1,2′-quinoxalin]-3′-one] | 
 | 81 µM |  |  |  | 165 to 170 °C (dec.) |  | 0.41 | O=C1Nc2ccccc2NC12COC2 [Compound 30, 3′,4′-Dihydro-1′H-spiro[oxetane-3,2′-quinoxalin]-3′-one] | 
